Test results reported in ChEMBL document CHEMBL6134823, “Combination therapy and dual-target inhibitors based on cyclin-dependent kinases (CDKs): Emerging strategies for cancer therapy” (Eur J Med Chem, 2025).

Key:
[1] = test system: A549; assay: Cytotoxicity against human A549 cells assessed as reduction in cell growth incubated fro 72 hrs by MTT assay; type: functional, cell-based; settings: A549, 72 h
[2] = test system: MCF7; assay: Cytotoxicity against human MCF7 cells assessed as reduction in cell growth incubated fro 72 hrs by MTT assay; type: functional, cell-based; settings: MCF7, 72 h
[3] = molecular target: T1, Cyclin-dependent kinase 4 (Homo sapiens, UniProt P11802); assay: Inhibition of CDK4 (unknown origin) at 1 uM relative to control
T1 sequence (P11802 whole entry): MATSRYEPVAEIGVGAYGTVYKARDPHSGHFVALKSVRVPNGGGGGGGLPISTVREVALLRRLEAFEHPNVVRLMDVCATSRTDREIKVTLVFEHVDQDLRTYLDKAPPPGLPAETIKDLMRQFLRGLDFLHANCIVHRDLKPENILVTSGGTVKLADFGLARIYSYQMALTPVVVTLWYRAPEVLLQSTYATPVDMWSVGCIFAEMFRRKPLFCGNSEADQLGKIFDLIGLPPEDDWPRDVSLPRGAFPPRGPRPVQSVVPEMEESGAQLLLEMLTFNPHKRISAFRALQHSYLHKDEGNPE

[4] = test system: HepG2; assay: Cytotoxicity against human HepG2 cells assessed as reduction in cell growth incubated fro 72 hrs by MTT assay; type: functional, cell-based; settings: HepG2, 72 h
[5] = test system: HCT-116; assay: Cytotoxicity against human HCT-116 cells assessed as reduction in cell growth incubated fro 72 hrs by MTT assay; type: functional, cell-based; settings: HCT-116, 72 h
[6] = molecular target: T2, Cyclin-dependent kinase 2 (Homo sapiens, UniProt P24941)
[7] = test system: SUM-159-PT; assay: Cytotoxicity against human SUM159 cells; type: functional, cell-based
[8] = test system: MDA-MB-231; assay: Cytotoxicity against human MDA-MB-231 cells; type: functional, cell-based
[9] = test system: OVCAR-5; assay: Antiproliferative activity against human OVCAR-5 cells assessed as growth inhibition incubated for 48 hrs by SRB assay; type: functional, cell-based; settings: OVCAR-5, 48 h
[10] = test system: SK-OV-3; assay: Cytotoxicity against human SK-OV-3 cells assessed as inhibition of cell growth incubated for 72 hrs by MTT assay; type: functional, cell-based; settings: SK-OV-3, 72 h
[11] = molecular target: T3, Epidermal growth factor receptor (Homo sapiens, UniProt P00533)
T3 sequence (P00533 whole entry): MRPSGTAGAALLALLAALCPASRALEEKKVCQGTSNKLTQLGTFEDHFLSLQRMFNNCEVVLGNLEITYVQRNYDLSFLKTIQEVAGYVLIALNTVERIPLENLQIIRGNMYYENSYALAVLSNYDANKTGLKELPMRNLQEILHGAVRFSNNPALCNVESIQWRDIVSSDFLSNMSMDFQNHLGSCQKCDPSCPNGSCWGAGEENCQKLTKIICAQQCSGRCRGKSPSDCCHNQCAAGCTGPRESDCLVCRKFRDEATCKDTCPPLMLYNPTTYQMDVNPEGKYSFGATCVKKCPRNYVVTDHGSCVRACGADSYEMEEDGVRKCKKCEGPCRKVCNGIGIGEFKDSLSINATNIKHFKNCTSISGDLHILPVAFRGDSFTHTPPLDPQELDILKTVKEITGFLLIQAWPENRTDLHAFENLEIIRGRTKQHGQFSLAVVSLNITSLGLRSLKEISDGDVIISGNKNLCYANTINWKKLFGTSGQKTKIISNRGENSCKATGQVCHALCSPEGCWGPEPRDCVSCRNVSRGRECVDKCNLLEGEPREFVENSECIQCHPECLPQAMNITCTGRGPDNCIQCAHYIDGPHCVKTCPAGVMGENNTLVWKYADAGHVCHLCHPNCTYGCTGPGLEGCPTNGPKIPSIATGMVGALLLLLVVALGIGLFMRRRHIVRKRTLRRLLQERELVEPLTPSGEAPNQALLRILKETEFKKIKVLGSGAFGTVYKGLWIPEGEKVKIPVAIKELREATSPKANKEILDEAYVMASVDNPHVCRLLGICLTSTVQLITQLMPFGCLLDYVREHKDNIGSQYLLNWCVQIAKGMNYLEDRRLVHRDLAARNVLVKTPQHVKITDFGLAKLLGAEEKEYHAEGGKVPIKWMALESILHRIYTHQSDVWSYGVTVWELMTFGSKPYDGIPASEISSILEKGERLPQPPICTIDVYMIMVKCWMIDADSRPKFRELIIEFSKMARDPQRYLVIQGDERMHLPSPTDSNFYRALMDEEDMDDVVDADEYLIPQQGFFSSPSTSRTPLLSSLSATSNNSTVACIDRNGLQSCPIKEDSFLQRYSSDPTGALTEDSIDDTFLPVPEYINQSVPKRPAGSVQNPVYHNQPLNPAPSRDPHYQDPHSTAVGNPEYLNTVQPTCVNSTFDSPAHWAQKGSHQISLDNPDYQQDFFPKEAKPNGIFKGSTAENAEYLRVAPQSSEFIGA

[12] = molecular target: Amine oxidase [flavin-containing] A (Homo sapiens, UniProt P21397); assay: Inhibition of MAO-A (unknown origin) measured by MAO-GloTM method
Amine oxidase [flavin-containing] A, sequence (P21397 whole entry): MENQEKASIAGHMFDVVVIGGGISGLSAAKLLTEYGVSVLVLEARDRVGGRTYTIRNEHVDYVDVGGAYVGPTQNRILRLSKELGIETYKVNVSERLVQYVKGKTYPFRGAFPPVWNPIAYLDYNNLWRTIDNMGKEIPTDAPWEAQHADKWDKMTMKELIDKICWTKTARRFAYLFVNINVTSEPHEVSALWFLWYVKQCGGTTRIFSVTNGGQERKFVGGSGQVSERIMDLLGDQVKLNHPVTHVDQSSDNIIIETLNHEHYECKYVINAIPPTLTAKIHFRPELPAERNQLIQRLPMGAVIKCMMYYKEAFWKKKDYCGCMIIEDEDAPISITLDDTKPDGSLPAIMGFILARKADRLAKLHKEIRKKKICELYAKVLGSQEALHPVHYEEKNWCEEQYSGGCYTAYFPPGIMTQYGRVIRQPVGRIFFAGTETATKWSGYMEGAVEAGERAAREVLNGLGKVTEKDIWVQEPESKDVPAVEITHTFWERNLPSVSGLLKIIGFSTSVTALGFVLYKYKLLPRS

[13] = test system: MCF7; assay: Growth inhibition of human MCF-7 cells incubated for 72 hrs by SRB assay; type: functional
[14] = test system: K562; assay: Growth inhibition of human K562 cells incubated for 72 hrs by SRB assay; type: functional
[15] = molecular target: Extracellular calcium-sensing receptor (Homo sapiens, UniProt P41180); assay: Inhibition of CASR (unknown origin)
[16] = test system: MDA-MB-231; assay: Cytotoxicity against human MDA-MB-231 cells assessed as reduction in cell growth incubated for 72 hrs by MTT assay; type: functional, cell-based; settings: MDA-MB-231, 72 h
[17] = test system: MCF7; assay: Cytotoxicity against human MCF7 cells assessed as reduction in cell growth incubated for 72 hrs by MTT assay; type: functional, cell-based; settings: MCF7, 72 h
[18] = molecular target: Receptor tyrosine-protein kinase erbB-2 (Homo sapiens) (UniProt P04626); assay: Inhibition of HER2 (unknown origin) at 10 uM in presence of ATP relative to control
[19] = molecular target: Cyclin-dependent kinase 1/cyclin B1 (Homo sapiens) (UniProt P06493+P14635); assay: Inhibition of CDK1/cyclin B1 (unknown origin) at 10 nM relative to control; type: protein-complex assay
[20] = molecular target: T1, Cyclin-dependent kinase 4; assay: Inhibition of human CDK4 extracted from baculovirus infected Sf9 insect cells incubated for 1 hrs in presence of ATP by liquid scintillation counter analysis
[21] = molecular target: Receptor-type tyrosine-protein kinase FLT3 (Homo sapiens, UniProt P36888); assay: Inhibition human recombinant FLT3
Receptor-type tyrosine-protein kinase FLT3, sequence (P36888 whole entry): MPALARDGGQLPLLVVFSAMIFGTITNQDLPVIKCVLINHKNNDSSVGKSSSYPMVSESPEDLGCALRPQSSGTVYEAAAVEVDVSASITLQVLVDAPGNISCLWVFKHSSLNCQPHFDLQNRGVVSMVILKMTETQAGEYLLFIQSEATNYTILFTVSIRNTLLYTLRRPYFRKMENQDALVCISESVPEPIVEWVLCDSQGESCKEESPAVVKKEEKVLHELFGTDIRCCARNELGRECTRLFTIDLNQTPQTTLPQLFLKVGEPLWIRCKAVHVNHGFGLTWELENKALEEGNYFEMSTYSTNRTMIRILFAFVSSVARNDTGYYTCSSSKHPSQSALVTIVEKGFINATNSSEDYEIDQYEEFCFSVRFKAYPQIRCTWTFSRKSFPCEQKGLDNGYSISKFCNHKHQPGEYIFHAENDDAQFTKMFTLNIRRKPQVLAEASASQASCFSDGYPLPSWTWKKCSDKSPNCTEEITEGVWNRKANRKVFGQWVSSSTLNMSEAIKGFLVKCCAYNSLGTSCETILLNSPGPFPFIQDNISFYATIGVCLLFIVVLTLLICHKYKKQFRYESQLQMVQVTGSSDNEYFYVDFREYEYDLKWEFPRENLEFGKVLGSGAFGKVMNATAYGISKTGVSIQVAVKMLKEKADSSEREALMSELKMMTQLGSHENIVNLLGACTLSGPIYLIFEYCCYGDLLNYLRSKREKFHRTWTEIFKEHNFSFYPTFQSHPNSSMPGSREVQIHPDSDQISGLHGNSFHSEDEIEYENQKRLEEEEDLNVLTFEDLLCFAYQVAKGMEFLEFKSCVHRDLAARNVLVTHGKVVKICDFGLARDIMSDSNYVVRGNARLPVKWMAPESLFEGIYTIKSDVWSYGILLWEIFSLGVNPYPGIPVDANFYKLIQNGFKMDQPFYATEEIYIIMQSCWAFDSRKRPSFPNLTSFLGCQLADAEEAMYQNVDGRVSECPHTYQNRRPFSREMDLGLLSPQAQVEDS

[22] = test system: PANC-1; assay: Antiproliferative activity against human PANC-1 cells assessed as reduction in cell viability incubated for 24 hrs by MTT assay; type: functional, cell-based; settings: PANC-1, 24 h
[23] = test system: MCF7; assay: Antiproliferative activity against human MCF7 cells assessed as reduction in cell viability incubated for 24 hrs by MTT assay; type: functional, cell-based; settings: MCF7, 24 h
[24] = test system: A549; assay: Antiproliferative activity against human A549 cells assessed as reduction in cell viability incubated for 24 hrs by MTT assay; type: functional, cell-based; settings: A549, 24 h
[25] = test system: HT-29; assay: Antiproliferative activity against human HT-29 cells assessed as reduction in cell viability incubated for 24 hrs by MTT assay; type: functional, cell-based; settings: HT-29, 24 h
[26] = molecular target: Cyclin-dependent kinase 7 (Homo sapiens, UniProt P50613); assay: Inhibition of CDK7 (unknown origin)
Cyclin-dependent kinase 7, sequence (P50613 whole entry): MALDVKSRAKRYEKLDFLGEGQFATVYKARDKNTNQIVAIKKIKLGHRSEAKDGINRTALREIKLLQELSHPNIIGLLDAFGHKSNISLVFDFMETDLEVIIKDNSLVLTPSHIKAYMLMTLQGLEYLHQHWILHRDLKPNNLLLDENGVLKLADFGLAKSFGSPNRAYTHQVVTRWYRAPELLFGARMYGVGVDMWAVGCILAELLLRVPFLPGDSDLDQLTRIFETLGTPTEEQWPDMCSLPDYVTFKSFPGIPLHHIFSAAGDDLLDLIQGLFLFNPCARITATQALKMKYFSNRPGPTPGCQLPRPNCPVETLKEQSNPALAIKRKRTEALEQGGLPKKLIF

[27] = molecular target: T3, Epidermal growth factor receptor; assay: Inhibition of EGFR (unknown origin) using Poly (Glu, Tyr) as substrate incubated for 60 mins in presence of ATP by Kinase-Glo Plus luminescence kinase assay relative to control
[28] = molecular target: T4, Cyclin-dependent kinase 9 (Homo sapiens, UniProt P50750); assay: Inhibition of CDK9 (unknown origin)
T4 sequence (P50750 whole entry): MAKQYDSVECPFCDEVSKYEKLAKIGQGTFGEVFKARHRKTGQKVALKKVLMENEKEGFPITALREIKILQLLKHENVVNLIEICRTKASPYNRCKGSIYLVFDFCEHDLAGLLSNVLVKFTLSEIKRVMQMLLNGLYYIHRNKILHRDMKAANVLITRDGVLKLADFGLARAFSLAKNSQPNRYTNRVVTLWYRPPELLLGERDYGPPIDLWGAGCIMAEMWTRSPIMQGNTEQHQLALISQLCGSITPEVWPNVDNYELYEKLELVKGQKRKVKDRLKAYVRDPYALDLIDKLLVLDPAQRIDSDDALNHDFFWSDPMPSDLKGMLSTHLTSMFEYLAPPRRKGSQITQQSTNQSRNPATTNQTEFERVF

[29] = molecular target: Histone deacetylase 1 (Homo sapiens, UniProt Q13547)
Description: Inhibition of HDAC1 (unknown origin)

[30] = molecular target: T2, Cyclin-dependent kinase 2; assay: Inhibition of CDK2 (unknown origin) by luminescence kinase assay
[31] = molecular target: T5, Poly [ADP-ribose] polymerase 1 (Homo sapiens, UniProt P09874); assay: Inhibition of PARP-1 (unknown origin) incubated for 60 mins by chemiluminescent assay
T5 sequence (P09874 whole entry): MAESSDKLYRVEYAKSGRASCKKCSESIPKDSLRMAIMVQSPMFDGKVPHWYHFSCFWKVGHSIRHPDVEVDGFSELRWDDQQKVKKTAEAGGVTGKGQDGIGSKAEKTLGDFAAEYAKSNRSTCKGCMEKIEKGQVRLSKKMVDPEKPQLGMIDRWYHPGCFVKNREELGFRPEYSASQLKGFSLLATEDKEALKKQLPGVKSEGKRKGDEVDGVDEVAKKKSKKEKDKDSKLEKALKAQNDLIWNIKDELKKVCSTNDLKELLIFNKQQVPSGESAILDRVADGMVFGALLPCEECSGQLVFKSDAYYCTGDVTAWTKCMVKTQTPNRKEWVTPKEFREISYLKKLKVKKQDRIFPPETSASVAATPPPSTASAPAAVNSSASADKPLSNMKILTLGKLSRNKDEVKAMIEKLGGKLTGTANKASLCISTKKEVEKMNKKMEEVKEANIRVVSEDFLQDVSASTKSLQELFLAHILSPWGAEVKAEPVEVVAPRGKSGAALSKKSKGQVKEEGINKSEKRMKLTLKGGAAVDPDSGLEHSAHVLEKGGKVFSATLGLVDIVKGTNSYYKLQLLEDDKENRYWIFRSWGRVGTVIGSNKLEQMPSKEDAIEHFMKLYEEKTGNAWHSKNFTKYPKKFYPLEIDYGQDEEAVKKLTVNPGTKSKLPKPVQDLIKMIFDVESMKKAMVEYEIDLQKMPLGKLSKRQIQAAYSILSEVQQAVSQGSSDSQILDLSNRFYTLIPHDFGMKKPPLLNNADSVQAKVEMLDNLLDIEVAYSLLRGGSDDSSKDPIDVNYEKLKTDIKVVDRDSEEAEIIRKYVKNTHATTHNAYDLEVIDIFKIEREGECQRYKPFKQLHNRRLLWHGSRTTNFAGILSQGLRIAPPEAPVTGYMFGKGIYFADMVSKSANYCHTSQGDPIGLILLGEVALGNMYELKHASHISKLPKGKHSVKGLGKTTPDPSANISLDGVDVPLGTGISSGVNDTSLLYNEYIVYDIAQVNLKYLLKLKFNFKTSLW

[32] = molecular target: T4, Cyclin-dependent kinase 9
Description: Inhibition of CDK9 (unknown origin) by ADP-Glo kinase assay

[33] = test system: MDA-MB-468; assay: Cytotoxicity against human MDA-MB-468 cells assessed as cell growth inhibition; type: functional, cell-based
[34] = molecular target: Cyclin-dependent kinase 6 (Homo sapiens, UniProt Q00534)
Description: Inhibition of CDK6 (unknown origin))

[35] = test system: BT-549; assay: Cytotoxicity against human BT-549 cells assessed as cell growth inhibition; type: functional, cell-based
[36] = test system: MDA-MB-231; assay: Cytotoxicity against human MDA-MB-231 cells assessed as cell growth inhibition; type: functional, cell-based
[37] = molecular target: T5, Poly [ADP-ribose] polymerase 1; assay: Inhibition of PARP1 (unknown origin)
[38] = molecular target: Histone deacetylase 2 (Homo sapiens, UniProt Q92769)
Description: Inhibition of HDAC2 (unknown origin)

[39] = molecular target: T2, Cyclin-dependent kinase 2; remark: listed apart in the source
Description: Inhibition of CDK2 (unknown origin) by mobility shift assay

[40] = molecular target: Aurora kinase A (Homo sapiens, UniProt O14965); assay: Inhibition of Aurora A (unknown origin)
[41] = molecular target: Cyclin-dependent kinase 5 (Homo sapiens, UniProt Q00535)
Description: Inhibition of CDK5 (unknown origin)

[42] = test system: SK-OV-3; assay: Antiproliferative activity against human SK-OV-3 cells; type: functional, cell-based
[43] = Antiproliferative activity against human PC-3 cells; type: functional, cell-based
[44] = test system: HeLa; assay: Antiproliferative activity against human HeLa cells; type: functional, cell-based
[45] = test system: A549; assay: Antiproliferative activity against human A549 cells; type: functional, cell-based

N[C@H]1CCN(c2c3cc(-c4ccnc(NC(=O)C5CC5)c4)ccc3nc3c2[nH]c2ccccc23)C1
IC50 [1]: 0.949 µM | IC50 [2]: 1.12 µM | inhibition [3]: 41.1% | IC50 [4]: 1.95 µM | IC50 [5]: 0.821 µM | IC50 [6]: 0.145 µM

Cc1nc2c(F)cc(-c3nc(Nc4ccc(N5CCN(C(=O)c6cc(Cc7n[nH]c(=O)c8ccccc78)ccc6F)CC5)cn4)ncc3F)cc2n1C(C)C
IC50 [7]: 0.435 µM | IC50 [8]: 3.61 µM | IC50 [9]: 0.758 µM | IC50 [10]: 0.548 µM

Cc1cc(C)cc(NNC(=O)[C@H]2CCCN2C(=O)Nc2ccc(Cl)cc2)c1
IC50 [6]: 0.015 µM | IC50 [11]: 0.096 µM

O=C(Nc1ccc2[nH]ncc2c1)c1cccc(Cl)c1Cl
IC50 [12]: > 10 µM

CCCCCCCNc1nc(NCc2ccccc2)c2n[nH]c(C(C)C)c2n1
GI50 [13]: 21.4 µM | IC50 [6]: > 1000 µM | GI50 [14]: 17 µM

O=C(Nc1cc(-c2ccc3nc4c([nH]c5ccccc54)c(N4CCOCC4)c3c2)ccn1)C1CC1
inhibition [3]: 5.31% | IC50 [6]: 3.91 µM

C[C@@H](NCCCc1cccc(C(F)(F)F)c1)c1cccc2ccccc12
IC50 [15]: 2.8 µM

O=C(CC(=O)Nc1cccc(C(=O)Nc2cccc(Nc3ncc(Cl)c(-c4c[nH]c5ccccc45)n3)c2)c1)NO
IC50 [16]: 23 µM | IC50 [17]: 18.1 µM

Cc1cc(C)cc(NNC(=O)[C@H]2CCCN2C(=O)Nc2ccc(C(F)(F)F)cc2)c1
IC50 [6]: 0.023 µM | IC50 [11]: 0.087 µM

O=C(Nc1ccc2c(ccn2C(=O)c2cccc(F)c2)c1)c1ccnnc1
inhibition [18]: 52% | inhibition [19]: 51%

CCN1CCN(c2ccc(Nc3ncc(F)c(-c4cnc5cnn(C(C)C)c5c4)n3)cc2)CC1
IC50 [20]: 0.01 µM | IC50 [21]: 0.008 µM

Cc1ccc(NNC(=O)[C@H]2CCCN2C(=O)Nc2ccc(C(F)(F)F)cc2)cc1
IC50 [22]: 4.1 µM | IC50 [23]: 3.7 µM | IC50 [24]: 3.9 µM | IC50 [25]: 4.2 µM

CN(C)C/C=C/C(=O)Nc1cccc(C(=O)Nc2cccc(Nc3ncc(Cl)c(-c4c[nH]c5ccccc45)n3)c2)c1
IC50 [26]: 0.019 µM

O=C(c1ccc2ccccc2c1)c1cn(-c2ccccc2)nc1C1=Nn2cnnc2SC1
IC50 [27]: 0.0647 µM

CCOc1ccc(/C=C2/C(=O)N(c3ccc(Cl)cc3)N=C2C)cc1
IC50 [28]: 0.077 nM | IC50 [11]: 0.00012 µM

O=C(CCCCCCC(=O)Nc1cccc(C(=O)Nc2cccc(Nc3ncc(Cl)c(-c4c[nH]c5ccccc45)n3)c2)c1)NO
IC50 [29]: 0.248 µM | IC50 [26]: 0.893 µM

CCOc1ccc(C2C(C#N)=C(N)OC3C2C(C)=NN3c2ccc(Cl)cc2)cc1 (centres undefined)
IC50 [28]: 1.26 nM | IC50 [11]: 0.00021 µM

O=C(c1ccc2ccccc2c1)c1cn(-c2ccccc2)nc1C1=Nn2c(S)nnc2SC1
IC50 [30]: 0.0896 µM | IC50 [27]: 0.165 µM

CCN1CCN(c2ccc(Nc3ncc(F)c(-c4cnc5cnn(C(C)C)c5c4)n3)cc2F)CC1
IC50 [20]: 0.007 µM | IC50 [21]: 0.011 µM

Cc1nnc2n1N=C(c1ccccc1OCC(=O)NCCCNC(=O)COc1ccccc1C1=Nn3c(C)nnc3SC1)CS2
IC50 [31]: 0.00137 µM

COC[C@@H](C)N[C@H]1CC[C@H](Nc2cc(-c3cccc(NCC4(C#N)CCOCC4)n3)c(Cl)cn2)CC1
IC50 [32]: 0.00051 µM

Cc1cc(=O)n(C2CCCC2)c2nc(NCCC3CCN(C(=O)c4cc(Cc5n[nH]c(=O)c6ccccc56)ccc4F)CC3)ncc12
IC50 [33]: 2.81 µM | IC50 [34]: 0.127 µM | IC50 [35]: 2.37 µM | IC50 [36]: 1.96 µM | IC50 [37]: 0.041 µM

Nc1ccc(F)cc1NC(=O)c1ccc(CNC(=O)/C=C/c2cccnc2)cc1
IC50 [38]: 0.093 µM

O=C1Nc2ccccc2/C1=C1/Nc2ccccc2C1=O [INDIRUBIN]
IC50 [39]: 0.003 µM

CC[C@H](CO)Nc1nc(NCc2ccccc2N)c2[nH]nc(C(C)C)c2n1
IC50 [40]: 0.4 µM | IC50 [41]: 0.26 µM | IC50 [6]: 0.07 µM

Cc1n[nH]c2c1C(c1ccc(F)cc1)C(C#N)=C(N)O2 (centres undefined)
IC50 [42]: 2.03 µM | IC50 [43]: 2.8 µM | IC50 [44]: 1.9 µM | IC50 [45]: 1.8 µM
